Test results taken from patent US20040077549A1, “Inhibitors of the E2F-1/cyclin interaction for cancer therapy” (priority 2000, published 2004).
Like-named read-outs stand apart in the source and are kept apart here. One block for each molecule: values may come before it. Where a SMILES comes first, the peptide text is derived from it. Bridges are numbered along the chain shown (N, C = ends). Where no end group is shown, it is not given here. [ ]: non-standard residue; d: D form.

How the values were obtained:
[1] = target: E2F-1/Cyclin A interaction (Homo sapiens, UniProt P20248); experiment: E2F-1/Cyclin A/cdk2 ELISA; assay type: binding
Description: An ELISA was developed to identify antagonists of E2F-1/Cyclin A interaction. This method is based on interactions between three proteins, E2F-1, Cyclin A and cdk2 and is analyzed colorimetrically. This assay was used to determine IC50 values for various synthetic peptides that were used in biological experiments and for SAR studies.
This assay allows determination of IC50 values for various synthetic peptides that were used in biological experiments or for SAR studies.
Nunc Immulon II ELISA plates are coated overnight at 4° C. with 250 μL of […] anti-GST antibody (Pharmacia Biotech) in bicarbonate buffer. Following five washes with wash buffer consisting of 50 mM Tris (pH=7.5), 0.15 M NaCl, and 0.01% Tween-20 (TBST), non-specific sites were blocked for 2 hr at room temperature with 300 μL of assay buffer consisting of 50 mM HEPES (pH=7.5), 0.15 M NaCl, 0.1% Triton X-100, and 5% bovine serum albumin (BSA). Plates were then washed five times in TBST, aspirated dry, and treated with 100 μL of GST-E2F-1 in TBS (25 nM). GST-E2F-1 was incubated at RT for at least 1 hr with non-specific binding (NSB) control wells receiving assay buffer with no protein. Plates were washed five times in TBST and multiple concentrations of test compounds diluted in assay buffer were co-incubated with 5 nM Cyclin A/cdk2 diluted in assay buffer. The Cyclin A/cdk2 complex was freshly prepared by mixing a 1:1 ratio of the two proteins in TBS at 4° C. for 30 min prior to addition to the assay plate. Following incubation for 2 hr at RT, plates were washed five times in TBST, and 100 μL of a 1:500 dilution of a rabbit anti-cdk2 antibody (Santa Cruz) diluted in assay buffer and were added to all wells. Following incubation for at least 1 hr at RT or overnight at 4° C., the plates were washed five times in TBST and 100 μL of a 1:1000 dilution of a HRP-conjugated anti-rabbit IgG antibody (Pierce) were added to all wells. Following a half hour incubation at RT, the plates were washed five times in TBST, aspirated dry, and developed by the addition of 100 μL of a HRP substrate ABTS prepared in sodium citrate buffer (pH=4.2). After 10-15 min, absorbance is read using a microplate reader at 405 nm.

U2OS cells [2] = experiment: Growth inhibition (MTS assay), U2OS; assay type: cell-based, Human; details: for IC50: 24 hr, MTS; for cell morphology: beginning at about 3 hr post-treatment; for inhibition as measured by the MTS assay: asynchronous culture of U2OS
Description: (§1) Evaluation of Growth Inhibition.

MDA-MB-435 cells [3] = experiment: Growth inhibition (MTS assay), MDA-MB-435; assay type: cell-based, Human; details: MDA-MB-435, 24 hr
Description: as §1

A549 cells = experiment: Growth inhibition (MTS assay), A549; assay type: cell-based, Human; details: A549, 24 hr
Description: as §1

MDA-MB-231 cells = details: read-out: IC50 growth inhibition; MDA-MB-231, 24 hr, MTS
Description: (§4) MDA-MB-435, U2OS, A549, MDA-MB-231 cells were maintained in DMEM supplemented with 10% FCS. SW480 and HCT-116 were grown in RPMI 1640 supplemented with 10% FCS.
(§5) Evaluation of Growth Inhibition. 3×10^3 cells/well were plated on a 96 well plate at 10% FCS and cultured overnight. The culture medium was discarded, and the cells were washed once with Opti-MEM. The cell monolayers were incubated at 37° C. with peptide solutions at various concentrations for 24 hr. The growth inhibition was evaluated using solutions composed of 3-(4,5-dimethylthiazol-2-yl)-5-(3-carboxymethoxyphenyl)-2-(4-sulfophenyl)-2H-tetrazolium; MTS (from Promega) and phenazine methosulfate; PMS (from Sigma).

WI38/VA13 SV40 cells = details: read-out: IC50 growth inhibition; WI38/VA13 SV40, 24 hr, MTS
Description: as §5

U2OS cells [4] = experiment: Uptake and intracellular compartmentalization (fluorescence microscopy), U2OS; assay type: cell-based, Human; details: 30 and 100 μM, 24 hr
Description: (§2) Peptide Treatment and Fluorescence Microscopy. 4×10^4 cells/well were plated on a 48 well plate at 10% FCS and cultured overnight. […] For detection of fluorescein-labeled peptides, cells were rinsed once with PBS (pH=7.3) and visualized using a fluorescence microscope (Axiovert 135 at 320×).
(§3) Uptake and Intracellular Compartmentalization of Tat Peptides. The internalization of the Tat-mt peptide labeled with fluorescein maleimide on the cysteine residue was investigated. The labeled peptide was verified by mass spectrometry and purified by HPLC before use. […] We further repeated the experiments with incubation of the peptide at 30 and 100 μM for 24 hr in osteosarcoma U2OS cells. […] The peptide was tested under the same conditions after direct labeling with fluorescein maleimide. No variation in the amount and localization of the internalized peptide was observed as compared with the Tat-peptide.

MDA-MB-435 cells [5] = experiment: Uptake and intracellular compartmentalization (fluorescence microscopy), MDA-MB-435; assay type: cell-based, Human; details: MDA-MB-435, after 30 min of incubation
Description: as §2, §3

HCT-116 cells = details: read-out: IC50 growth inhibition; HCT-116, 24 hr, MTS
Description: as §4, §5

SW480 cells = details: read-out: IC50 growth inhibition; SW480, 24 hr, MTS
Description: as §4, §5

Rat1 cells = details: read-out: IC50 growth inhibition; Rat1, 24 hr, MTS
Description: as §5

HeCat cells = details: read-out: IC50 growth inhibition, 24 hr, MTS
Description: as §5

[6] = linear peptide, read-out: IC50 Linear
[7] = E2F-1/Cyclin A/cdk2 ELISA, read-out: IC50
[8] = cyclic peptides, read-out: ELISA IC50
[9] = cyclized between side-chain amino group of Lys* and carboxyl group of Gly*, read-out: IC50 Cyclic
[10] = original identified sequences (linear), read-out: IC50

IC50 [1, 7]: 1 nM
IC50 [1, 8]: 1 nM
IC50 [1, 9]: 1 nM
Molecule: CC(C)C[C@@H]1NC(=O)[C@@H](NC(=O)[C@H](CCCNC(=N)N)NC(=O)[C@H](CCCCN)NC(=O)[C@H](C)NC(=O)[C@H]2CCCN2)CCCCNC(=O)CNC(=O)[C@H](Cc2ccccc2)NC1=O [compound 2, Pro-Ala-Lys-Arg-(Lys-Leu-Phe-Gly)] (H-[dP]AKRKLFG; lactam 5-C)

IC50 [1, 8]: 10 nM
IC50 [1, 9]: 10 nM
Molecule: CC(=O)N[C@@H](C)C(=O)N[C@@H](CCCCN)C(=O)N[C@@H](CCCNC(=N)N)C(=O)N[C@H]1CCCCNC(=O)CNC(=O)[C@H](Cc2ccccc2)NC(=O)[C@H](CC(C)C)NC1=O [compound 3, Ac-Ala-Lys-Arg-(Lys-Leu-Phe-Gly)] (Ac-AKRKLFG; lactam 4-C)

IC50 [1, 7]: 20 nM
IC50 [1, 8]: 20 nM
IC50 [1, 9]: 20 nM
Molecule: CC(=O)N[C@@H](CCCCN)C(=O)N[C@@H](CCCNC(=N)N)C(=O)N[C@H]1CCCCNC(=O)CNC(=O)[C@H](Cc2ccccc2)NC(=O)[C@H](CC(C)C)NC1=O [compound 4, Ac-Lys-Arg-(Lys-Leu-Phe-Gly)] (Ac-KRKLFG; lactam 3-C)

IC50 [1, 10]: 200 nM
Molecule: SACRNLFG [reference compound]

Further lines, the molecule ahead of its results:

Molecule: CC(=O)N[C@@H](CCCN=C(N)N)C(=O)N[C@@H](CCCCN)C(=O)N[C@@H](CC(C)C)C(=O)N[C@@H](Cc1ccccc1)C(=O)NCC(=O)O [Ac-Arg-Lys-*Leu-Phe-Gly* (Linear), Ac-Arg-Lys-*Leu-Phe-Gly*]
IC50 [1, 6]: 30000 nM

Molecule: CC(C)C[C@@H]1NC(=O)[C@@H](NC(=O)[C@H](CCCNC(=N)N)NC(=O)[C@H](CCCCN)NC(=O)[C@H](C)NC(=O)[C@@H]2CCCN2C(=O)CNC(=O)[C@H](CCCNC(=N)N)NC(=O)[C@H](CCCNC(=N)N)NC(=O)[C@H](CCCNC(=N)N)NC(=O)[C@H](CCC(N)=O)NC(=O)[C@H](CCCNC(=N)N)NC(=O)[C@H](CCCNC(=N)N)NC(=O)[C@H](CCCCN)NC(=O)[C@H](CCCCN)NC(=O)[C@H](CCCNC(=N)N)NC(=O)CNC(=O)[C@@H](N)Cc2ccc(O)cc2)CCCCNC(=O)CNC(=O)[C@H](Cc2ccccc2)NC1=O [Tat-cyclic, YGRKKRRQRRRG PAKR(KLFG)] (H-YGRKKRRQRRRGPAKRKLFG; lactam 17-C)
IC50 [1]: 100 to 1000 nM
IC50 (U2OS cells [2]; U2OS): 6000 to 7000 nM
cell morphology (U2OS cells [2]; U2OS): rounded morphology
inhibition as measured by the MTS assay (U2OS cells [2]): dose-dependent inhibition
IC50 (MDA-MB-435 cells [3]): 6000 to 7000 nM
IC50 (A549 cells): 26000 to 46000 nM
IC50 (MDA-MB-231 cells): 6000 to 7000 nM
IC50 (WI38/VA13 SV40 cells): 6000 to 7000 nM

Molecule: Ac-AKRKLFG [Ac-Ala-Lys-Arg-Lys-*Leu-Phe-Gly*]
IC50 [1, 6]: 200 nM

Molecule: Ac-KRKLFG [Ac-Lys-Arg-Lys-*Leu-Phe-Gly* (Linear), Ac-Lys-Arg-Lys-*Leu-Phe-Gly*]
IC50 [1, 6]: 1000 nM

Molecule: FluMalCXYGRKKRRQRRRG PVKARLDL [FITC-Tat-mt]
penetration to the nucleus (U2OS cells [4]): 100%
intracellular localization (MDA-MB-435 cells [5]): mainly recovered from the nucleus with a nucleolar accumulation

Molecule: PAKRKLFG [Pro-Ala-Lys-Arg-Lys-Leu-Phe-GIy]
IC50 [1, 6]: 100 nM
IC50 [1, 10]: 100 nM

Molecule: YGRKKRRQRRRG [Tat, reference compound]
failed to cause any morphological changes and MTS reading up to (U2OS cells [2]; U2OS): > 300 μM

Molecule: YGRKKRRQRRRGPVKRRLDL [Tat-linear, YGRKKRRQRRRG PVKRRLDL]
IC50 [1]: 100 to 1000 nM
IC50 (U2OS cells [2]; U2OS): 28000 to 40000 nM
cell morphology (U2OS cells [2]; U2OS): rounded morphology
inhibition as measured by the MTS assay (U2OS cells [2]): dose-dependent inhibition
IC50 (MDA-MB-435 cells [3]): 48000 to 50000 nM
IC50 (HCT-116 cells): 80000 nM
IC50 (SW480 cells): 26000 nM
IC50 (Rat1 cells): > 100000 nM
IC50 (HeCat cells): > 100000 nM
